Source: the CheMixHub viscosity set
± gives the uncertainty stated by the source.

Experiment: xn = mol fraction of the nth substance listed

CC(=O)CC(C)C + CCCCCCC
298.15 K, 101 kPa
Conditions	viscosity [mPa·s]
x1 = 0.1142	0.39 ± 0.004
x1 = 0.2052	0.397 ± 0.004
x1 = 0.3088	0.407 ± 0.004
x1 = 0.4417	0.424 ± 0.005
x1 = 0.5341	0.438 ± 0.005
x1 = 0.6443	0.458 ± 0.005
x1 = 0.7444	0.478 ± 0.005
x1 = 0.8854	0.511 ± 0.005

O=C1CCCCC1 + CCCCCCO
303.15 K, 101 kPa
Conditions	viscosity [mPa·s]
x1 = 0.1001	3.014 ± 0.027
x1 = 0.2599	2.391 ± 0.022
x1 = 0.4199	2.008 ± 0.018
x1 = 0.5798	1.861 ± 0.017
x1 = 0.7404	1.738 ± 0.016

O=C1CCCCC1 + COCCO
298.15 K, 101 kPa
Conditions	viscosity [mPa·s]
x1 = 0.0793	1.432 ± 0.035
x1 = 0.1624	1.369 ± 0.032
x1 = 0.2494	1.33 ± 0.029
x1 = 0.3408	1.325 ± 0.026
x1 = 0.4367	1.33 ± 0.024
x1 = 0.5377	1.354 ± 0.022
x1 = 0.644	1.402 ± 0.02
x1 = 0.7562	1.504 ± 0.019
x1 = 0.8746	1.665 ± 0.018

C[NH+]1CCCC1=O.Cc1ccc(S(=O)(=O)[O-])cc1 + O
viscosity [mPa·s], 100 kPa
Conditions	x1 = 0.00179	x1 = 0.003588	x1 = 0.005313	x1 = 0.008042	x1 = 0.01069	x1 = 0.01417	x1 = 0.02116	x1 = 0.02631	x1 = 0.03141
293.15 K	1.079 ± 0.012	1.149 ± 0.013	1.212 ± 0.014	1.311 ± 0.015	1.404 ± 0.016	1.533 ± 0.018	1.806 ± 0.021	2.029 ± 0.023	2.274 ± 0.026
298.15 K	0.9575 ± 0.011	–	1.073 ± 0.012	1.157 ± 0.013	–	1.358 ± 0.016	–	1.819 ± 0.021	2.048 ± 0.024
303.15 K	0.8523 ± 0.0099	0.9062 ± 0.01	0.9554 ± 0.011	–	–	1.201 ± 0.014	1.42 ± 0.016	1.611 ± 0.019	1.827 ± 0.021
308.15 K	0.7695 ± 0.0089	0.8124 ± 0.0094	0.8523 ± 0.0099	0.9156 ± 0.011	0.9784 ± 0.011	–	–	1.444 ± 0.017	1.64 ± 0.019

O=C(OCc1ccccc1)c1ccccc1O + CS(C)=O
303.15 K, 101 kPa
Conditions	viscosity [mPa·s]
x1 = 0.079	2.299 ± 0.026
x1 = 0.1284	2.529 ± 0.029
x1 = 0.1867	2.933 ± 0.034
x1 = 0.2564	3.273 ± 0.037
x1 = 0.3413	3.776 ± 0.043
x1 = 0.4467	4.342 ± 0.05
x1 = 0.5812	4.995 ± 0.057

CCCCCCCCCCCCCC[P+](CCCCCC)(CCCCCC)CCCCCC.c1nnc[n-]1 + O
Conditions	viscosity [mPa·s]
298.15 K, 100 kPa, x2 = 0.7956	114 ± 3

CC(C)CC(C)(C)C + C1COCCO1
viscosity [mPa·s], 101 kPa
Conditions	x2 = 0.1085	x2 = 0.2061	x2 = 0.2943	x2 = 0.3746	x2 = 0.515	x2 = 0.6337	x2 = 0.6865	x2 = 0.8237	x2 = 0.9008
293.15 K	0.5237 ± 0.0039	0.5426 ± 0.0041	0.5664 ± 0.0043	0.5961 ± 0.0045	0.6613 ± 0.005	0.7446 ± 0.0057	0.7922 ± 0.0061	0.9589 ± 0.0074	1.083 ± 0.0084
298.15 K	0.4947 ± 0.0037	0.5119 ± 0.0039	0.5334 ± 0.0041	0.561 ± 0.0043	0.6252 ± 0.0048	0.6968 ± 0.0054	0.7388 ± 0.0057	0.885 ± 0.0069	0.9979 ± 0.0078
303.15 K	0.4683 ± 0.0036	0.4835 ± 0.0037	0.5036 ± 0.0039	0.5289 ± 0.0041	0.5825 ± 0.0045	0.6529 ± 0.0051	0.6909 ± 0.0054	0.8248 ± 0.0065	0.9282 ± 0.0073
308.15 K	0.4438 ± 0.0034	0.4578 ± 0.0035	0.4761 ± 0.0037	0.4992 ± 0.0039	0.5485 ± 0.0043	0.6141 ± 0.0048	0.6485 ± 0.0051	0.7634 ± 0.006	0.857 ± 0.0068
313.15 K	0.4211 ± 0.0033	0.4352 ± 0.0034	0.4507 ± 0.0035	0.4727 ± 0.0037	0.5181 ± 0.0041	0.5788 ± 0.0046	0.6082 ± 0.0048	0.7242 ± 0.0057	0.7993 ± 0.0064

CC(C)CC(C)(C)C + CC(C)O
viscosity [mPa·s], 101 kPa
Conditions	298.15 K	308.15 K
x1 = 0.0513	1.722 ± 0.04	–
x1 = 0.0555	1.703 ± 0.021	–
x1 = 0.1045	1.47 ± 0.035	–
x1 = 0.1511	1.3 ± 0.031	–
x1 = 0.2103	1.123 ± 0.016	–
x1 = 0.2394	1.066 ± 0.026	–
x1 = 0.2822	0.947 ± 0.024	–
x1 = 0.4108	0.751 ± 0.02	–
x1 = 0.4264	0.734 ± 0.014	–
x1 = 0.5195	0.64 ± 0.018	–
x1 = 0.5751	0.599 ± 0.013	–
x1 = 0.6545	0.562 ± 0.017	–
x1 = 0.6978	0.54 ± 0.012	–
x1 = 0.8094	0.505 ± 0.016	–
x1 = 0.9505	0.49 ± 0.016	–
x2 = 0.05	0.482 ± 0.013	0.432 ± 0.012
x2 = 0.1	0.486 ± 0.013	0.434 ± 0.012
x2 = 0.1501	0.493 ± 0.013	0.44 ± 0.012
x2 = 0.2	0.503 ± 0.013	0.447 ± 0.012
x2 = 0.25	0.515 ± 0.013	0.457 ± 0.012
x2 = 0.3	0.53 ± 0.013	0.468 ± 0.013
x2 = 0.35	0.55 ± 0.013	0.483 ± 0.013
x2 = 0.4	0.576 ± 0.013	0.501 ± 0.013
x2 = 0.45	0.608 ± 0.013	0.524 ± 0.013
x2 = 0.5	0.646 ± 0.013	0.552 ± 0.013
x2 = 0.55	0.694 ± 0.013	0.586 ± 0.013
x2 = 0.6	0.751 ± 0.013	0.628 ± 0.013
x2 = 0.65	0.819 ± 0.014	0.677 ± 0.013
x2 = 0.7	0.901 ± 0.014	0.736 ± 0.013
x2 = 0.75	1.003 ± 0.014	0.806 ± 0.014
x2 = 0.8	1.122 ± 0.015	0.898 ± 0.014
x2 = 0.85	1.277 ± 0.016	1.006 ± 0.014
x2 = 0.9	1.407 ± 0.017	1.145 ± 0.015
x2 = 0.95	1.707 ± 0.018	1.31 ± 0.016
